In patent US11260050B2, “Combination of cotinine plus antioxidant for treatment-resistant depression and correction of astrocytes functional deficit induced by depression and other neuropathological” (UNIVERSIDAD SAN SEBASTIAN, priority 2017, dated 2022):

Assays:
[1] = tested on: conditioned mice; experiment: Fear retention and extinction tests after fear conditioning (Example 4); format: in vivo, Mice C57BL/6
Method: Three-month-old mice (n=5-6/condition) were weighed and assigned to treatment groups. Mice were treated with vehicle or drugs, starting two h after fear conditioning and daily after behavioral testing until euthanasia. Mice received daily treatments with 1. PBS (phosphate buffer saline, pH 7.4) via intranasal; 2. Cotinine (10 mg/ml) dissolved in PBS via intranasal (IN Cot, 24 μl); 3. Krill oil dissolved in PBS, via intranasal (48 mg/ml, 24 μl); 4. Cotinine (10 mg/ml) plus krill oil dissolved in PBS, via intranasal (48 mg/ml, 24 μl); 5.
For intranasal delivery, mice were hand-restrained, placed in a supine position, and given two 12 μl drops of cotinine solutions, or PBS, into both nares consecutively. Mice were given an extra 12 μl treatment drop if the subject forcibly ejected or sneezed out the solution. Mice were held supine for 5-10 seconds after delivery to ensure that all fluid was inhaled.
Contextual fear conditioning was performed as described. The conditioning chamber used (33 cm×20 cm×22 cm) is surrounded by a sound-attenuating box with a camera connected to freeze frame software (MED Associates Inc.) and equipped to provide a background white noise (72 dB). The conditioning chamber contains in one side a speaker and in the opposite side has a 24V light, and a 36-bar insulated shock grid floor. To perform this test, each mouse was placed in the conditioning chamber for 2 min before the onset of a discrete tone (a sound that will last 30 seconds (sec) at 2,800 Hz and 85 dB). In the last two seconds of this tone, mice received a foot shock of 1 mA, kept in the conditioning chamber for 2 min and returned to their home cages. Between trials, the chamber was sanitized with 70% ethanol and dried. Freezing behavior was defined as the absence of all movement except the one needed for breathing was assessed using the FreezeView Software (MED Associates Inc.).
Fear retention and extinction experiments were performed as described, using the same cohorts of mice and reproduced in two separate experiments. To assess fear retention and mice underwent re-exposure to the conditioning chamber in the absence of an unconditioned stimulus (shock or auditory cues) for 3 minutes (min) in daily extinction trials. Freezing behavior was measured using the ANY-Maze® software (Stoelting CO, USA). The extinction trials were continued until the decrease in freezing behavior reached a stable level.

[2] = tested on: GFAP; experiment: Immunohistochemical analysis of GFAP expression, hippocampus and frontal cortex (Example 1); format: in vivo, C57BL/6 mice; conditions: RS mice treated with cotinine
Excerpt: After treatments, the hippocampus and frontal cortex were investigated for changes in neuronal and glia cells architecture by Luxol blue staining, and cresyl violet staining. Also, the expression levels of the astrocyte marker GFAP in cells of the same areas by immunohistochemistry.
After the behavioral testing, mice were euthanized and brains were removed and dissected. Each brain was divided into two parts, left and right hemispheres. The frontal cortex and hippocampus were dissected from left hemisphere on ice and quickly frozen for subsequent analyses at −80° C. The right hemispheres were post-fixed in 10% buffered formalin (pH7.4) for 48 hours, included in paraffin, sliced in 4 μm sections and mounted in slides for histological and immunohistochemical analysis. […]
Three digital images of the slides immunostained for GFAP immunoreactivity (IR) were obtained of the hippocampus and frontal cortex using a digital camera attached to an inverted microscope at 40× magnification (Micrometrics, MilesCo Scientific, Princeton, Minn., USA) operated by software Micrometrics (Micrometrics SE Premium). To quantitate GFAP immunoreactivity the area of immunostaining was delimited and quantitated using the ImageJ software, provided by the National Institute of Health (NIH, Bethesda, […]., USA).

[3] = tested on: mice subjected to restraint stress; experiment: Open field test after restraint stress (Example 1, Experiment 1); format: in vivo, C57BL/6 mice; conditions: RS mice, IN cotinine 10 mg/ml, 25 min of testing; p=0.058
Method: (§1) Mice were treated immediately after the 21 days of immobilization stress (6 h/day) until euthanasia. Mice (n=5-8/condition) received daily treatments with 1. PBS (phosphate buffer saline, pH 7.4) via intranasal (2×12 μl/nostril), 2. PBS via gavage (50 μl); 3. Cotinine dissolved in PBS via oral (gavage, (0.5 mg/kg; Cot 0.5); 4. Cotinine dissolved in PBS via intranasal (Cot IN, 10 mg/ml, 2×12 μl/nostril).
(§2) To induce chronic stress, the restraint stress paradigm was used as previously described. Mice are immobilized in 50 ml falcon plastic tubes that were attached to mouse cages. The immobilization proceeded during 6 h from 9:00 AM to 3:00 PM in absence of treatments. Tubes have holes in the opposite side of the tube to allow the animal breathing and urination. Mice were almost completely immobilized for 6 h/day for 21 days after which they were permitted freely to move, eat and drink.
OF is used to monitor locomotor activity. […] Several parameters including, total distance traveled, speed, rearing behavior and time spent in the center and peripheral zones (20 cm×20 cm) are measured to assess locomotor activity and behavioral changes induced by stress.

[4] = tested on: mice; conditions: absence of stress, cotinine treatment for up to eight months; cited from earlier work
[5] = tested on: mice subjected to restraint stress; experiment: Novel object recognition after restraint stress (Example 1, Experiment 1); format: in vivo, C57BL/6 mice; conditions: RS mice, 14 days of IN cotinine; p<0.05
Method: as §1, §2
After a habituation step in the OF arena, each mouse was individually placed in the apparatus containing two identical objects located equidistant to each other (familiarization phase) and left to explore the objects for 5 min. Then, mice were returned to their cages and permitted to rest for 30 min. […] The time exploring the two objects was recorded during 5 min. […]

[6] = tested on: GFAP; experiment: GFAP immunofluorescence, morphometric analysis and cell counting in the dentate gyrus (Example 3); format: in vivo, C57BL/6J mice; conditions: restrained mice, oral co-treatment; vs vehicle-treated restrained mice
Method: Mice after acclimatization and one week of handling were randomly divided into five groups (n=8/condition) and orally treated as follow: 1) control non-restrained mice treated with vehicle (PBS, pH 7.4); 2) restrained mice treated with vehicle; 3), restrained mice treated with a cotinine solution (5 mg/kg in PBS, pH 7.4) via gavage; 4) restrained mice treated with KO (143 mg/kg); 5) restrained mice treated with cotinine plus KO solution. Mice were started with treatments, the first day of restraint and continuously until euthanasia. Treatments were administered at the same time of the day, 30 min before restraint.
For the immunohistochemistry (IHC) and fluorescent IHC (F-IHC) analysis the right hemisphere of each mouse brain was placed in 4% paraformaldehyde in PBS pH 7.4 at 4° C. for 24 h. The tissues were embedded in 2% agarose molds for vibratome sectioning.
For the F-IHC, samples were washes 3 times for 7 min with Tris-buffered saline (TBS), pH 7.8. The primary antibody anti-GFAP (1:50, BioSB) was diluted in diluent buffer, containing TBS supplemented with 1% bovine serum albumin (BSA) and 0.2% Triton X-100, and incubated with the tissue sections overnight (ON) at 4° C. […] The samples were counterstained with Hoechst (1:1000) and mounted with fluorescence mounting medium (Prolong, Invitrogen). […]
In each image, a region of interest (ROI) that represented the dentate gyrus was determined using free-hand drawing. For each ROI, the mean gray values (MGV), representing the area fraction with immunoreactivity for GFAP, were measured. To measure the fluorescence intensity of GFAP immunostaining in the dentate gyrus, maximum intensity projections of confocal z-stacks acquired from sagittal brain sections were converted into 8-bit greyscale images with 256 scales (pixel intensity 0 corresponding to no signal and 255 to maximal signal) by ImageJ software. […] For the GFAP+ cell counting, cell to be counted must had at least half of the cell nucleus visible on the edge of the ROI and cells were not included in the analysis if they were adherent to blood vessel walls.

SMILES: CN1C(=O)CC[C@H]1c1cccnc1 [Cotinine, (5S)-1-methyl-5-(3-pyridyl) pyrrolidin-2-one]
- freezing behavior during daily extinction trials (speed of fear extinction) ([1]; 5 days of extinction, daily treatment): faster extinction of fear
- day on which maximal decrease in freezing was reached ([1]; same time as mice treated with PBS): 4 days
- fear reaction (freezing) in the retention test ([1]; treatment started 2 h after FC, IN cotinine 10 mg/ml, IN KO 48 mg/ml, oral sertraline 3 mg/kg): significant decrease in the fear reaction in the retention test
- level of GFAP+ cells in the hippocampus and cortex (qualitative analysis) [2]: recovery of this expression was observed
- distance traveled in the open field test [3]: 44±18 m
- sensory motor abilities or anxiety [4]: did not induce significant differences in sensory motor abilities or anxiety
- number of entries into the new object area (NOR) [5]: increased the number of entries into the new object area to control values
- mean gray value (GFAP IR intensity) in the dentate gyrus [6]: significant increase of the IR intensity
- number of GFAP+ cells (cell density) in the dentate gyrus [6]: significant increase of cell density
- percent area fraction occupied by GFAP+ cells in the dentate gyrus [6]: significant increase in the GFAP+ fraction area
